Experimental data from patent US20240066136A1, “MODIFIED PROTEINS AND PROTEIN DEGRADERS” (Cullgen (Shanghai), Inc., priority 2020, published 2024).

molecular target: Human DDB1 (Homo sapiens (Human), UniProt Q16531); assay: Surface plasmon resonance (SPR) binding assay to immobilized His-DDB1; settings: SPR, DDB1 binding moieties with linkers and/or target protein binding moiety; read-out: Binding (Kd)
Experimental: The binding affinities of heterobifunctional compounds to DDB1 were determined by SPR assay. Purified His-DDB1 proteins were immobilized on a CM5 sensor chip, and a dose range of compound solutions were injected in multi-cycle kinetic format. Data were fit to steady state model and gave equivalent dissociation constants (KD).
Protein Expression and Purification. Human DDB1 (UniPro: Q16531) coding sequences were cloned into pFastBacHTB vector and were expressed in High5 cells using Bac-to-Bac baculovirus expression system (Thermo Fisher Scientific). […] DDB1 proteins were obtained from supernatant of cell lysates and purified through sequential application of Ni affinity (Ni-NTA column. Bio-Rad), and size-exclusion (Superdex 200 16/600GL column, GE Healthcare) column chromatography.
Surface plasmon resonance (SPR) binding assay. All SPR studies were performed on a Biacore X100 plus or T200 instrument (GE Healthcare). Immobilization of purified His-DDB1 was carried out at 25° C. using a CM5 sensor chip. The surface was pre-equilibrated in HBS-EP running buffer (10 mM HEPES, pH7.4, 150 mM NaCl, 3 mM EDTA, 0.05% P20), then activated with EDC/NHS. His-DDB1 proteins were immobilized by amine coupling to a density of 11,000-13,000 resonance units (RUs) on flow cell FC2, whereas flow cell FC1 was used as reference. Both DDB1 immobilized and reference surfaces were deactivated with 1M ethanolamine.
All interaction experiments were performed at 25° C. […] Compound Solutions were injected individually in multi-cycle kinetic format without regeneration (flow rate […], association time 120 s, dissociation time 120 s). Sensorgrams from reference surfaces and blank injections were subtracted from the raw data (double-referencing) and the data was solvent-corrected prior to analysis. All data were fit to steady state affinity model using Biacore Evaluation Software and gave equivalent dissociation constants (KD).

Chain of Human DDB1 (Q16531 whole entry): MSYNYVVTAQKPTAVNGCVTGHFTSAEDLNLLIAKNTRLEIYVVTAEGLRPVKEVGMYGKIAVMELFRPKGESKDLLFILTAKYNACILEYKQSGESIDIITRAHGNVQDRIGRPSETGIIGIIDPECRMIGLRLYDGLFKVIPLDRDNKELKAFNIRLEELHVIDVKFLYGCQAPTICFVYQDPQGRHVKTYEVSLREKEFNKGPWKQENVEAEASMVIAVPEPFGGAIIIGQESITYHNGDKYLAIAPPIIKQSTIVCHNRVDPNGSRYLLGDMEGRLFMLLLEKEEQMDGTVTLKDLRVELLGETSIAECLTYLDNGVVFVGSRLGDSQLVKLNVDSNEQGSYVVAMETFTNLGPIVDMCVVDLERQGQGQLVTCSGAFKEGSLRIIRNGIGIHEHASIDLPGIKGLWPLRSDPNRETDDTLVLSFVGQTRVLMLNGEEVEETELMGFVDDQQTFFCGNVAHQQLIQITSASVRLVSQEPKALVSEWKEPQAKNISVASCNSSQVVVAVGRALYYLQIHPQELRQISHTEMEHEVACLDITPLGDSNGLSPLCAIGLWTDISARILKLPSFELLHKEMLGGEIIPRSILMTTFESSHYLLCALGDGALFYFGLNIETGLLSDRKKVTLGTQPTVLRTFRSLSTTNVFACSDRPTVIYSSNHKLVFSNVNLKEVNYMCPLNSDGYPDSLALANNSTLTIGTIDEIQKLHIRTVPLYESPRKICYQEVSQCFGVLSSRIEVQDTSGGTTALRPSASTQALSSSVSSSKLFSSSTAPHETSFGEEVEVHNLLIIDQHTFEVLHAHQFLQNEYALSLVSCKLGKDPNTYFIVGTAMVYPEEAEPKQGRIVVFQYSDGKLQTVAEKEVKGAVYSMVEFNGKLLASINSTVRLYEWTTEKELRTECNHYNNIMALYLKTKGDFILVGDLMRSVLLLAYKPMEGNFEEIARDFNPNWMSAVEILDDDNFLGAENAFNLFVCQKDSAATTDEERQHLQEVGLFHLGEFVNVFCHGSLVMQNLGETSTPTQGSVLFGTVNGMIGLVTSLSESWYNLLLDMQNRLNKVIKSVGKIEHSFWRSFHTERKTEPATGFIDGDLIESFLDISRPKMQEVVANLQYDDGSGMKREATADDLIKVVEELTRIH

Molecule | Kd [µM]
CC(=O)Nc1cc(NCCOCCNC(=O)C[C@@H]2N=C(c3ccc(Cl)cc3)c3c(sc(C)c3C)-n3c(C)nnc32)ccc1C(=O)Nc1nc(C)c([N+](=O)[O-])s1 [D-32, (S)-2-Acetamido-4-((2-(2-(2-(4-(4-chlorophenyl)-2,3,9-trimethyl-6H-thieno[3,2-f][1,2,4]triazolo[4,3-a][1,4]diazepin-6-yl)acetamido)ethoxy)ethyl)amino)-N-(4-methyl-5-nitrothiazol-2-yl)benzamide] | 20 to 100
CC(=O)Nc1cc(C(=O)NCCOCCOCCOCCN)ccc1C(=O)Nc1nc(C)c([N+](=O)[O-])s1 [BL-5, 2-acetamido-N^4-(2-(2-(2-(2-aminoethoxy)ethoxy)ethoxy)ethyl)-N^1-(4-methyl-5-nitrothiazol-2-yl)terephthalamide] | 20 to 100

Now from value to molecule:

Kd [µM] | Molecule
< 20 | CC(=O)Nc1cc(NCCOCCOCCOCCNC(=O)CN2CCN(c3ccc(Nc4ncc5c(C)c(C(C)=O)c(=O)n(C6CCCC6)c5n4)nc3)CC2)ccc1C(=O)Nc1nc(C)c([N+](=O)[O-])s1 [D-46, 2-Acetamido-4-((1-(4-(6-((6-acetyl-8-cyclopentyl-5-methyl-7-oxo-7,8-dihydropyrido[2,3-d]pyrimidin-2-yl)amino)pyridin-3-yl)piperazin-1-yl)-2-oxo-6,9,12-trioxa-3-azatetradecan-14-yl)amino)-N-(4-methyl-5-nitrothiazol-2-yl)benzamide]
20 to 100 | CC(=O)Nc1cc(NCCOCCOCCOCCN)ccc1C(=O)Nc1nc(C)c([N+](=O)[O-])s1 [BL-8, 2-Acetamido-4-((2-(2-(2-(2-aminoethoxy)ethoxy)ethoxy)ethyl)amino)-N-(4-methyl-5-nitrothiazol-2-yl)benzamide]

same assay, conditions: SPR, steady state affinity model, 25° C.; read-out: Binding (DDB1 binder activities, Kd)

Molecule | Kd [µM]
CC(C)Oc1ccccc1C(=O)Nc1ncc([N+](=O)[O-])s1 [B-74, 2-Isopropoxy-N-(5-nitrothiazol-2-yl)benzamide] | < 20
Cc1cc(F)ccc1C(=O)Nc1ncc([N+](=O)[O-])s1 [B-171, 4-Fluoro-2-methyl-N-(5-nitrothiazol-2-yl)benzamide] | 20 to 100
CCCc1ccccc1C(=O)N(C)c1ncc([N+](=O)[O-])s1 [B-104, N-Methyl-N-(5-nitrothiazol-2-yl)-2-propylbenzamide] | 20 to 100
CC(=O)Nc1ccccc1C(=O)Nc1ncc(S(C)(=O)=O)s1 [B-47, 2-Acetamido-N-(5-(methylsulfonyl)thiazol-2-yl)benzamide] | > 100
CC(=O)Nc1ccccc1C(=O)Nc1ccncn1 [B-57, 2-acetamido-N-(pyrimidin-4-yl)benzamide] | 20 to 100
CN(C)c1ccccc1C(=O)Nc1ncc([N+](=O)[O-])s1 [B-69, 2-(dimethylamino)-N-(5-nitrothiazol-2-yl)benzamide] | > 100
CNS(=O)(=O)c1ccccc1C(=O)Nc1ncc([N+](=O)[O-])s1 [B-81, 2-(N-Methylsulfamoyl)-N-(5-nitrothiazol-2-yl)benzamide] | 20 to 100
CN(CCc1ccccc1)C1CCCN(C(=O)CCc2nc3ccccc3[nH]2)C1 (stereo not shown) [B-139, 3-(1H-benzo[d]imidazol-2-yl)-1-(3-(methyl(phenethyl)amino)piperidin-1-yl)propan-1-one] | < 20
CCc1ccc(C(=O)Nc2ncc([N+](=O)[O-])s2)c(C)c1 [B-158, 4-Ethyl-2-methyl-N-(5-nitrothiazol-2-yl)benzamide] | 20 to 100
CNC(=O)CCCNC(=O)c1nnn2c1CN(C(=O)OCCCCCC(C)C)CC2 [B-144, 6-methylheptyl3-((4-(methylamino)-4-oxobutyl)carbamoyl)-6,7-dihydro-[1,2,3]triazolo[1,5-a]pyrazine-5(4H)-carboxylate] | 20 to 100
Cc1cc(-c2ccccc2)ccc1C(=O)Nc1ncc([N+](=O)[O-])s1 [B-153, 3-Methyl-N-(5-nitrothiazol-2-yl)-[1,1′-biphenyl]-4-carboxamide] | 20 to 100
CC(Nc1nc(-c2ccco2)nc2c1CCNCC2)c1nnc(N)s1 (stereo not shown) [B-138, 5-(1-((2-(furan-2-yl)-6,7,8,9-tetrahydro-5H-pyrimido[4,5-d]azepin-4-yl)amino)ethyl)-1,3,4-thiadiazol-2-amine] | 20 to 100
CC(C)C(=O)Nc1ccccc1C(=O)Nc1ncc([N+](=O)[O-])s1 [B-61, 2-Isobutyramido-N-(5-nitrothiazol-2-yl)benzamide] | 20 to 100
NS(=O)(=O)c1ccccc1C(=O)Nc1ncc([N+](=O)[O-])s1 [B-80, N-(5-Nitrothiazol-2-yl)-2-sulfamoylbenzamide] | 20 to 100
CC(=O)Nc1ccccc1C(=O)Nc1ccc(I)cc1 [B-60, 2-Acetamido-N-(4-iodophenyl)benzamide] | 20 to 100
CCOc1ccccc1C(=O)Nc1ncc([N+](=O)[O-])s1 [B-7, 2-Ethoxy-N-(5-nitrothiazol-2-yl)benzamide] | < 20
COC(=O)Oc1ccccc1C(=O)Nc1ncc([N+](=O)[O-])s1 [B-78, Methyl (2-((5-nitrothiazol-2-yl)carbamoyl)phenyl) carbonate] | 20 to 100
CCCCNc1ccc(C(=O)Nc2ncc(Br)s2)c(-c2ccccc2)c1 [B-117, N-(5-Bromothiazol-2-yl)-5-(butylamino)-[1,1′-biphenyl]-2-carboxamide] | 20 to 100
2-Acetamido-3-butyramido-N-(5-nitrothiazol-2-yl)benzamide [B-146] | 20 to 100
CCNc1cccc(OCC)c1C(=O)Nc1ncc([N+](=O)[O-])s1 [B-168, 2-Ethoxy-6-(ethylamino)-N-(5-nitrothiazol-2-yl)benzamide] | > 100
CC(=O)N(C)c1ccccc1C(=O)Nc1ncc([N+](=O)[O-])s1 [B-64, 2-(N-Methylacetamido)-N-(5-nitrothiazol-2-yl)benzamide] | 20 to 100

Continued, values first:

Kd [µM] | Molecule
> 100 | CC(=O)Nc1ccccc1C(=O)Nc1ncccn1 [B-56, 2-acetamido-N-(pyrimidin-2-yl)benzamide]
> 100 | CC(=O)Oc1cccc(C)c1C(=O)Nc1ncc([N+](=O)[O-])s1 [B-170, 3-Methyl-2-((5-nitrothiazol-2-yl)carbamoyl)phenyl acetate]
20 to 100 | O=C(Nc1cccc(N2CCOC2=O)c1)c1ccccc1C1CCCN1 (stereo not shown) [B-140, N-(3-(2-oxooxazolidin-3-yl)phenyl)-2-(pyrrolidin-2-yl)benzamide]
< 20 | Cc1ccccc1C(=O)Nc1nccs1 [B-176, 2-Methyl-N-(thiazol-2-yl)benzamide]
< 20 | O=C(Nc1ncc([N+](=O)[O-])s1)c1ccccc1-c1ccccc1 [B-86, N-(5-Nitrothiazol-2-yl)-[1,1′-biphenyl]-2-carboxamide]
> 100 | Cc1cc(N2CCN(C)CC2)ccc1C(=O)Nc1ncc([N+](=O)[O-])s1 [B-163, 2-Methyl-4-(4-methylpiperazin-1-yl)-N-(5-nitrothiazol-2-yl)benzamide]
20 to 100 | CCCCNc1ccc(C(=O)Nc2ncc(C(F)(F)F)s2)c(-c2ccccc2)c1 [B-118, 5-(Butylamino)-N-(5-(trifluoromethyl)thiazol-2-yl)-[1,1′-biphenyl]-2-carboxamide]
> 100 | CCOc1cc(NC2CCOC2)ccc1C(=O)Nc1ncc([N+](=O)[O-])s1 (stereo not shown) [B-97, 2-Ethoxy-N-(5-nitrothiazol-2-yl)-4-((tetrahydrofuran-3-yl)amino)benzamide]
20 to 100 | CC(=O)Nc1ccccc1C(=O)Nc1ncc(C#N)s1 [B-39, 2-acetamido-N-(5-cyanothiazol-2-yl)benzamide]
20 to 100 | CC(=O)Nc1ccccc1C(=O)Nc1nc(Cl)c([N+](=O)[O-])s1 [B-29, 2-Acetamido-N-(4-chloro-5-nitrothiazol-2-yl)benzamide]
< 20 | CCOc1ccccc1C(=O)N(C)c1ncc([N+](=O)[O-])s1 [B-102, 2-Ethoxy-N-methyl-N-(5-nitrothiazol-2-yl)benzamide]
> 100 | Cc1cc(NC(C)C)ccc1C(=O)Nc1ncc([N+](=O)[O-])s1 [B-161, 4-(Isopropylamino)-2-methyl-N-(5-nitrothiazol-2-yl)benzamide]
> 100 | CC(=O)Nc1ccccc1C(=O)Nc1nccs1 [B-41, 2-Acetamido-N-(thiazol-2-yl)benzamide]
20 to 100 | c1ncc(Nc2nccc(C3CCCCN3)n2)cn1 (stereo not shown) [B-137, 4-(piperidin-2-yl)-N-(pyrimidin-5-yl)pyrimidin-2-amine]
20 to 100 | CCCCNc1ccc(OC(C)=O)c(C(=O)Nc2ncc([N+](=O)[O-])s2)c1 [B-18, 4-(butylamino)-2-((5-nitrothiazol-2-yl)carbamoyl)phenylacetate]
20 to 100 | CC(=O)Nc1ccccc1C(=O)Nc1nc(C)c(Cl)s1 [B-40, 2-acetamido-N-(5-chloro-4-methylthiazol-2-yl)benzamide]
20 to 100 | CS(=O)(=O)Nc1ccccc1C(=O)Nc1ncc([N+](=O)[O-])s1 [B-67, 2-(methylsulfonamido)-N-(5-nitrothiazol-2-yl)benzamide]
20 to 100 | O=C(Nc1ncc([N+](=O)[O-])s1)c1ccccc1NC1CC1 [B-71, 2-(cyclopropylamino)-N-(5-nitrothiazol-2-yl)benzamide]
